US20100009348A1, “Methods and Constructs for Analyzing Biological Activities of Biological Specimens and Determining States of Organism” (ATTAGENE, INC., priority 2005, published 2010)

Experiment: STZ-induced type I diabetes in rats, blood glucose concentration
Type: in vivo, rat
Conditions: Sprague-Dawley male rats, single intra-peritoneal injection of 70 mg/kg STZ, seven days following the injection, tail vein blood
Text: Experimental type I diabetes mellitus was induced in rats by using Streptozotocin (STZ), a N-nitroso derivative of D-glucosamine. Streptozotocin causes rapid necrosis in pancreatic β-cells of islets of Langerhans (Okamoto, 1985, Bioessays 2:15-21). STZ has been widely used to provoke insulin-dependent diabetes conditions in various laboratory animals, and animals treated with STZ are recognized in the art as a model of diabetes mellitus (Like and Rossini, 1976, Science 193:415-417).
The design of the approach to compare sera from diabetic and healthy rats is illustrated in FIG. 4. Sprague-Dawley male rats aged 10-12 weeks were randomly allocated in two groups. Rats from one group received a single intra-peritonial injection of 70 mg/kg STZ (Sigma-Aldrich, St. Louis, Mo., USA) dissolved in freshly prepared 50 mM citrate buffer (pH, 4.0). Animals in control group received an equivalent volume of the citrate buffer. Seven days following the injection, blood samples were derived from a tail vein of the control and STZ treated animals. Development of the diabetic conditions in STZ treated animals was confirmed by blood glucose concentration measurements.

Q: Which “blood glucose levels (hyperglycemia)” value does the source give for `CN(N=O)C(=O)N[C@H]1C(O)O[C@H](CO)[C@@H](O)[C@@H]1O` (mixture of isomers) [STZ, Streptozotocin] here?
A: Its value is “at least 300 mg/dl”.
